System: bacterial production of odoriferous steroids
Assay: sub-lethal inhibition of the bacterial production of odoriferous steroids
Type: cell-based

CC(C)(C)NC(=O)[C@H]1CC[C@H]2[C@@H]3CC[C@H]4NC(=O)C=C[C@]4(C)[C@H]3CC[C@]12C [finasteride]
sub-lethally inhibiting the bacterial production of odoriferous steroids: incapable of sub-lethally inhibiting
